Several values for one entry are separate records, joined by “and”; a condition that tells them apart may be missing. Identical values can stand only once.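 Each compound was tested at five concentrations against cells in 96-well plates for 48 hours. GI50 is the concentration that inhibits growth by half. At the TGI there is no net growth.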

Test systems include HCT-116 colon; HL-60(TB) leukemia; MDA-MB-231 breast; MDA-MB-435; NCI/ADR-RES ovarian; RXF 393 renal; SF-268 CNS; SF-295 CNS; SNB-19 CNS; SNB-75 CNS.
Holding throughout (test): NCI tumour cell line growth inhibition, 48 h

On to `C=C1C(=O)O[C@H]2[C@H]1CC/C(COC(=O)c1cc3ccccc3s1)=C\CC[C@@]1(C)O[C@@H]21`, for which the GI50 in the test on HCT-116 colon was 0.591 µM; in the test on HL-60(TB) leukemia, 1.89 µM; with MDA-MB-231 breast, 1.97 µM; in the test on MDA-MB-435, 1.33 µM; in the test on NCI/ADR-RES ovarian it was 2.14 µM; in the test on RXF 393 renal, 1.23 µM. The GI50 in the test with SF-268 CNS was 1.54 µM; in the test with SF-295 CNS, 3.33 µM; in the test with SNB-19 CNS, 2.09 µM; in the test on SNB-75 CNS, 3.52 µM. In addition, the TGI was 2.1 µM in the test on HCT-116 colon; 5.53 µM in the test on HL-60(TB) leukemia; 4.35 µM in the test on MDA-MB-231 breast; 2.89 µM in the test on MDA-MB-435; 6.63 µM in the test on NCI/ADR-RES ovarian; 2.66 µM in the test on RXF 393 renal. In addition, the TGI in the test with SF-268 CNS was 3.24 µM; with SF-295 CNS, 12.8 µM; with SNB-19 CNS, 4.97 µM; in the test on SNB-75 CNS, 13.4 µM.

Turning to `O=c1[nH]c(=O)n(C2OC(CO)C(O)C(O)C2O)cc1F` (configuration not stated), the TGI with HCT-116 colon is above 100 µM; in the test on HL-60(TB) leukemia it was above 74.5 µM; in the test on MDA-MB-231 breast it was above 100 µM; in the test with MDA-MB-435, above 100 µM; with NCI/ADR-RES ovarian, above 100 µM; with RXF 393 renal, above 100 µM. Besides, the TGI in the test on SF-268 CNS, in the test on SF-295 CNS, in the test with SNB-19 CNS and in the test on SNB-75 CNS was above 100 µM each time.

On to `COc1cc2c3c(n(CCNCCCNCCn4c5c(c6cc(OC)c(OC)cc6c4=O)C(=O)c4ccccc4-5)c(=O)c2cc1OC)-c1ccccc1C3=O`, for which the GI50 with HCT-116 colon is 0.0254 µM; in the test with HL-60(TB) leukemia, below 0.0154 µM; in the test with MDA-MB-231 breast it was 0.178 µM; with MDA-MB-435, 1.02 µM; in the test with NCI/ADR-RES ovarian, above 100 µM; in the test with RXF 393 renal it was 1.14 µM. In addition, the GI50 is 0.0648 µM in the test with SF-268 CNS, 0.105 µM in the test on SF-295 CNS, 0.162 µM in the test on SNB-19 CNS and 1.6 µM in the test on SNB-75 CNS. The TGI is 1.16 µM in the test with HCT-116 colon; 0.334 µM in the test with HL-60(TB) leukemia; 2.1 µM with MDA-MB-231 breast; 2.55 µM in the test with MDA-MB-435; above 100 µM with NCI/ADR-RES ovarian; 12.1 µM in the test with RXF 393 renal. The results for the TGI in the test on SF-295 CNS, in the test on SNB-19 CNS and with SNB-75 CNS were 2.11 µM, 4.26 µM and 6.81 µM, respectively.

As for `CC(C)(C)c1cc(NC(=O)Cc2ccc(-c3cnc4cc(-c5cnn(CCN6CCOCC6)c5)ccc4n3)cc2)no1`, the GI50 was 0.226 µM and 0.417 µM and 0.0705 µM with HCT-116 colon; 0.225 µM and 0.546 µM and 0.158 µM in the test with HL-60(TB) leukemia; 0.622 µM and 0.573 µM with MDA-MB-231 breast; 0.356 µM and 0.452 µM and 0.0989 µM in the test on MDA-MB-435; 1.08 µM and 0.745 µM and 0.117 µM in the test with NCI/ADR-RES ovarian; 0.179 µM and 0.274 µM and 0.0395 µM in the test on RXF 393 renal. Further, the GI50 in the test on SF-268 CNS was 0.413 µM and 0.468 µM and 0.0781 µM; in the test on SF-295 CNS, 0.436 µM and 0.461 µM and 0.0839 µM; with SNB-19 CNS, 2.47 µM and 2.26 µM and 0.279 µM. In addition, the TGI was 50 µM and > 100 µM and > 3 µM with HCT-116 colon; 50 µM and > 100 µM and > 3 µM with HL-60(TB) leukemia; 50 µM and > 100 µM and > 2.85 µM with MDA-MB-231 breast; 50 µM and > 100 µM and > 3 µM in the test with MDA-MB-435; 50 µM and > 100 µM and > 3 µM in the test on NCI/ADR-RES ovarian; 1.93 µM and 1.45 µM in the test on RXF 393 renal. The TGI was 50 µM and > 100 µM and > 3 µM in the test on SF-268 CNS; 50 µM and > 100 µM and > 3 µM with SF-295 CNS; 50 µM and > 100 µM and > 3 µM with SNB-19 CNS; 4.39 µM and 38.4 µM and > 3 µM in the test with SNB-75 CNS.

As to `CCOC(=O)c1c(C)nc2c(c1N)/C(=C/c1ccc(OC)cc1)C(=O)N2Cc1ccc(F)cc1`, the GI50 was 0.134 µM in the test with HCT-116 colon; 0.14 µM in the test on HL-60(TB) leukemia; 0.236 µM with MDA-MB-231 breast; 0.201 µM in the test with MDA-MB-435; 0.299 µM in the test on NCI/ADR-RES ovarian; 0.14 µM in the test with RXF 393 renal. Moreover, the GI50 was 0.285 µM in the test with SF-268 CNS, 1.37 µM in the test with SF-295 CNS, 0.532 µM in the test on SNB-19 CNS and 1.03 µM with SNB-75 CNS. Besides, the TGI stood at 0.36 µM with HCT-116 colon; 0.474 µM with HL-60(TB) leukemia; 0.76 µM with MDA-MB-231 breast; 0.469 µM with MDA-MB-435; 0.329 µM in the test on RXF 393 renal; 1.21 µM with SF-268 CNS. Also, the TGI with SF-295 CNS worked out at 3.59 µM; with SNB-19 CNS, 1.87 µM; with SNB-75 CNS, 4.83 µM.

With `CCCCN1CSC(=S)N(Cc2ccccc2)C1`, the TGI was above 100 µM in the test with HCT-116 colon; 19.4 µM in the test with HL-60(TB) leukemia; above 100 µM with MDA-MB-231 breast; above 100 µM with MDA-MB-435; above 100 µM in the test with NCI/ADR-RES ovarian; above 100 µM with RXF 393 renal. The TGI in the test on SF-268 CNS, in the test on SF-295 CNS, in the test with SNB-19 CNS and in the test on SNB-75 CNS was above 100 µM each time.

For the molecule `COc1ccc(C2SCC(=O)N2NC(=O)Nc2c(C)nc3ccccn23)cc1` (configuration not stated), the GI50 is 17.1 µM in the test on HCT-116 colon; above 100 µM in the test on HL-60(TB) leukemia; 15.8 µM in the test on MDA-MB-231 breast; above 100 µM in the test on MDA-MB-435; 40.2 µM in the test on NCI/ADR-RES ovarian; 26.4 µM in the test on RXF 393 renal. Also, the GI50 was 39.7 µM with SF-268 CNS, 24.5 µM with SF-295 CNS, 21.7 µM in the test with SNB-19 CNS and 4.76 µM with SNB-75 CNS. The TGI in the test with HCT-116 colon was 42.8 µM; with HL-60(TB) leukemia, above 100 µM; in the test with MDA-MB-231 breast, 34.7 µM; with MDA-MB-435, above 100 µM; with NCI/ADR-RES ovarian, above 100 µM; in the test on RXF 393 renal, 69.3 µM. Moreover, the TGI was above 100 µM in the test with SF-268 CNS, 57.3 µM in the test on SF-295 CNS, 47.3 µM in the test with SNB-19 CNS and 19.9 µM with SNB-75 CNS.

As to `COC(=O)[C@H](Cc1c[nH]c2ccccc12)NC(=O)[C@@H](OC)[C@@H]1Cc2cc3cc(OC4CC(OC5CC(O)C(O)C(C)O5)C(O)C(C)O4)c(C)c(O)c3c(O)c2C(=O)[C@H]1OC1CC(OC2CC(OC3CC(C)(O)C(O)C(C)O3)C(O)C(C)O2)C(O)C(C)O1` (some centres not stated), the GI50 in the test on HCT-116 colon was 0.00537 µM; with HL-60(TB) leukemia it was 0.0119 µM; in the test with MDA-MB-231 breast, 0.00975 µM; in the test with MDA-MB-435, 0.00784 µM; in the test with NCI/ADR-RES ovarian, above 11.7 µM; in the test on RXF 393 renal, 0.00833 µM. Besides, the GI50 is 0.00891 µM in the test with SF-268 CNS, 0.0112 µM in the test on SF-295 CNS, 0.00777 µM in the test with SNB-19 CNS and 0.00465 µM in the test on SNB-75 CNS. Besides, the TGI was above 16.5 µM in the test on HCT-116 colon; 0.386 µM in the test with HL-60(TB) leukemia; 0.603 µM in the test on MDA-MB-231 breast; 0.0394 µM in the test with MDA-MB-435; above 16.5 µM with NCI/ADR-RES ovarian; 0.0243 µM in the test with RXF 393 renal. Also, the TGI is 1.78 µM in the test on SF-268 CNS, 3.21 µM in the test on SF-295 CNS, above 16.5 µM in the test on SNB-19 CNS and 0.0244 µM with SNB-75 CNS.

These data come from PubChem BioAssay (NCI).
